In brackets after ≈: the same amount, converted by molar mass.
Columns and labels:
Format in all cases: functional, cell-based
KB [1] = experiment: Reversal of multidrug resistance in vincristine-resistant human KB cells in presence of 0.1 uM vincristine
[2] = Cytotoxicity against vincristine-resistant human KB/VJ300 cells
KB [3] = experiment: Reversal of multidrug resistance in vincristine-resistant human KB cells in presence of 0.121 uM vincristine

Compound	IC50 (KB [1])	IC50 [2]	IC50 (KB [3])
CCOC(=O)[C@@H]1[C@@H](O)[C@@]23C=CCN4CC[C@@]5(c6ccccc6N[C@]15CC2)[C@@H]43 [KOPSILOSCINE J]	15 µg/mL	> 25 µg/mL	
COC(=O)N1c2c(ccc3c2OCO3)[C@@]23CCN4C[C@@H]5O[C@@H]5[C@]5(CC[C@]12[C@](O)(C(=O)OC)[C@@H]5O)[C@H]43 [KOPSIMALINE A]		> 25 µg/mL	3.9 mM
COC(=O)N1c2c(O)cccc2[C@@]23CCN4C[C@@H]5O[C@@H]5[C@]5(CC[C@]12[C@](O)(C(=O)OC)[C@@H]5O)[C@H]43 [KOPSIMALINE B]	13 µg/mL	> 25 µg/mL	
COC(=O)N1c2c(ccc(OC)c2O)[C@@]23CCN4C[C@@H]5O[C@@H]5[C@]5(CC[C@]12[C@](O)(C(=O)OC)[C@@H]5O)[C@H]43 [KOPSIMALINE C]	18.2 µg/mL	> 25 µg/mL	
COC(=O)N1c2c(ccc3c2OCO3)[C@@]23CCN4C[C@@H]5O[C@@H]5[C@@]5([C@@H](O)[C@@](O)(C(=O)OC)[C@@]12C[C@@H]5O)[C@H]43 [KOPSIMALINE D]	9.2 µg/mL	25 µg/mL (≈ 49.8 µM)	
COC(=O)N1c2c(OC)cccc2[C@@]23CCN4C[C@@H]5O[C@@H]5[C@]5(CC[C@]12[C@](O)(C(=O)OC)[C@@H]5O)[C@H]43 [KOPSIMALINE E]	18 µg/mL	> 25 µg/mL	

Source: ChEMBL document CHEMBL1142391, “Biologically active aspidofractinine alkaloids from Kopsia singapurensis” (J Nat Prod, 2008)
